Test results: patent US20230340012A1, “NATURAL AND SYNTHETIC COMPOUNDS FOR TREATING CANCER AND OTHER DISEASES” (PACIFIC ARROW LIMITED, priority 2009, published 2023)
Values after ≈ are worked out from the molar mass of the structure shown. Values joined by “and” are separate entries in the source; they are usually repeats but may differ in a detail not shown here. Equal entries are not always repeated.

Legend:
[1] = tested on: U2OS; experiment: MTT assay, bone (U2OS); format: cell-based, human
Experimental: (§1) Cells. HTB-9 (bladder), HeLa-S3 (cervix), DU145 (prostate), H460 (lung), MCF-7 (breast), K562 (leukemia), HCT116 (colon), HepG2 (liver), U2OS (bone), T98G (brain), SK-MEL-5 (Skin) and OVCAR 3, ES2 (ovary), Pancreas (Capan), Mouth (KB), Kidney(A498).
(§2) MTT Assay. The procedure for MTT assay followed the method described by Carmichael et al. (1987) with modifications. The cells were seeded into a 96-well plate at for 24 hours before drug-treatment. The cells were then exposed to the drugs for 48, 72, or 96 hours. After the drug-treatment, MTT (0.5 mg/mL) was added to cultures and incubated for an hour. The formazan (product of the reduction of tetrazolium by viable cells) formed and was dissolved with DMSO and the O.D. at 490 nm, and was measured by an ELISA reader. The MTT level of the cells before drug-treatment was also measured (T0). The % cell-growth (%G) is calculated as: %G = (TD-T0 / TC-T0) x 100(1), where TC or TD represents O.D. readings of control or drug-treated cells. When T0 > TD, then the cytotoxicity (LC) expressed as % of the control is calculated as: %LC = (TD-T0 / T0) × 100(2).

[2] = tested on: K562; experiment: MTT assay, leukemia (K562); format: cell-based, human
Experimental: as §1, §2

[3] = tested on: MCF-7; experiment: MTT assay, breast (MCF-7); format: cell-based, human
Experimental: as §1, §2

[4] = tested on: Fibronectin; experiment: Fibronectin secretion experiment (Western blot); format: cell-based; settings: bladder, cervix, prostate, lung, breast, leukemia, colon, liver, bone, brain, skin, ovary, pancreas, mouth, kidney cells; 24 hours
Experimental: Western blot is applied in this invention as a method to detect the specific proteins in treated and untreated cells with compounds in this invention, wherein the cells are bladder, cervix, prostate, lung, breast, leukemia, colon, liver, bone, brain, Skin, ovary, Pancreas(Capan), Mouth(KB), Kidney.
Cells: targeted cells were grown in RPMI 1640 medium. 1.5 million cells were seeded in a T25 flask and grown for 24 hours before drug-treatment.
Drug-treatment: Cells cultures were replaced with fresh RPMI medium containing either 2.5 ul of DMSO (as control) [D]; or 10, 20, 30, 40, 80 ug/ml of tested compounds.
After 24 hours, aliquot of culture medium was taken out for Fibronectin determination (Western blot method).
Cell viability at 24 hours was determined by MTT assay. Cultures were replaced with RPMI medium (5 ml) with MTT and incubated for an hour. The formation of formazan was dissolved in 10 ml of DMSO and OD at 570 nm was measured (MTT units). Western Blot: Spent culture medium was mixed with SDS sample buffer, boiled for 3 minutes before loading to SDS gel. Samples were applied to a 6-10% SDS gel and electrophoresis was conducted with 100 volts for 2 hours. Protein was transferred to a nitrocellulose membrane electrophoretically. The nitrocellulose blot was incubated with the first antibody and second antibody (AP conjugated, Promega S3721). The immuno-bands were developed with BCIP/NBT color development system.
Determination of Western blot band intensity: The band-images of Western blot were captured with a digital camera and the intensity of bands was determined using “Image J” software.

[5] = tested on: cancer cells; experiment: Inhibition of cancer growth, cancer invasion, cell invasion or cancer cell invasion; format: cell-based
From the text: The program is based on our purification methods and biological assays including the MTT assay. See International Application No. PCT/US05/31900, filed Sep. 7, 2005, U.S. Serial No. 11/289,142, filed Nov. 28, 2005, and U.S. Serial No. 11/131551, filed May 17, 2005, and PCT/US2008/002086, 1188-ALA-PCT, filed Feb. 15, 2008, 12/344,682, 1020-B1-US, filed Dec. 29, 2008. The details of Analysis of gene expression of ES2 cells after Y-treatment by Microarray, Data Analysis Methods and Western blot in PCT/US2008/002086, 1188-ALA-PCT, filed Feb. 15, 2008, and the cell invasion experiments methods in International Application PCT/US2010/0042240, filed Jul. 16, 2010.

[6] = tested on: Capan; experiment: MTT assay, pancreas (Capan); format: cell-based, human
Experimental: as §1, §2
• A. Cells: Capan cells are derived from Human pancreas carcinoma (pancreas). Cells were grown in RPMI 1640 medium supplemented with 10% FCS, antibiotics and glutamine. 10000 cells were seeded in a well (96-welled plate) for one day before drug-treatment • B. Drug treatment: • -- Drug: Tig-S (stored as a 1000x stock solution in DMSO) was used. • -- Drug concentration used: from 0.15 - 20 ug/ml. • -- Drug-treatment was carried out for 3 days. • C. At the end of the drug-treatment, cytotoxic test was performed with MTT assay. The percentage of drug-treated cells’ growth as compared to those of the no drug control is determined.

[7] = tested on: T98G; experiment: MTT assay, brain (T98G); format: cell-based, human
Experimental: as §1, §2

[8] = tested on: KB; experiment: MTT assay, mouth (KB); format: cell-based, human
Experimental: as §1, §2

[9] = tested on: SK-Mel-5; experiment: MTT assay, skin (SK-Mel-5); format: cell-based, human
Experimental: as §1, §2

[10] = tested on: ES2; experiment: MTT assay, ovary (ES2); format: cell-based, human
Experimental: as §1, §2
Method: A. Cells • -WI38 is a Normal Lung fibroblast. Cells were grown in MEM medium supplemented with 10% FCS, antibiotics and glutamine. 20 K cells were seeded per well (96-welled plate) for one day before drug-treatment • -ES2 is an Ovary Clear cells carcinoma. Cells were grown in RPMI-1640 medium supplemented with 10% FCS, antibiotics and glutamine. 10 K cells were seeded per well (96-welled plate) for one day before drug-treatment.
B. Drug treatment: • -Drug: Tig-S. stored as 1000x stock solution in DMSO. • -Drug concentration used: from 0.15 - 20 ug/ml. • -Drug-treatment was carried out for 2 days (ES2) or 6 days (WI38). For the 6 days incubation, cells were fed with fresh medium (with drug) on day 3 and 5.
C. At the end of the drug-treatment, cytotoxic test was performed with MTT assay.

[11] = tested on: HepG2; experiment: MTT assay, liver (HepG2); format: cell-based, human
Experimental: as §1, §2

[12] = tested on: OVCAR3; experiment: MTT assay, ovary (OVCAR3); format: cell-based, human; settings: for IC50 of ovary (OVCAR3): MTT
Experimental: as §1, §2

Row | IC50 of bone (U2OS) [1] | IC50 of leukemia (K562) [2] | IC50 of breast (MCF-7) [3] | IC50 of mouth (KB) [8] | IC50 of skin (SK-Mel-5) [9] | IC50 of liver (HepG2) [11] | IC50 of ovary (OVCAR3) [12] | Compound | inhibition of fibronectin secretion [4] | anti-cancer activity [5] | IC50 of pancreas (Capan) [6] | IC50 of brain (T98G) [7] | IC50 of ovary (ES2) ([10]; MTT) | IC50, pancreas cancer (Capan) cells' growth ([6]; 3 days) | IC50, ES2 cells ([10]; 2 days drug treatment, MTT) | IC100, ES2 cells ([10]; MTT OD after treatment equal to OD before treatment, 2 days) | IC50 in ES2 cells ([10]; MTT assay with low doses of Tig-S) | % of the control cell growth, ES2 ([10]; at 10 ug/ml) | MTT OD as % of the original value, ES2 ([10]; at 10 ug/ml) | IC50, ovarian cancer (OCAR3) cells' growth ([12]; FIG. 37)
1 | 20 µg/mL | 9 µg/mL | 20 µg/mL | 13 µg/mL | 22 µg/mL | 26 µg/mL | 25 µg/mL | CC=C(C)C(=O)OCC1(C)C(O)CCC2(C)C1CCC1(C)C2CC=C2C3CC(C)(C)C(O)C(OC(=O)C(C)=CC)C3(COC(=O)C(C)=CC)C(O)CC21C (centres unmarked) [Tig-T] | 20-40% | have anti-cancer activities | 10 µg/mL | 26 µg/mL | 14 µg/mL |  |  |  |  |  |  | 
2 | 4.5 µg/mL | 2 µg/mL | 4.5 µg/mL | 3 µg/mL | 5.1 µg/mL | 6 µg/mL | 5.8 µg/mL | 24,28-O-Tigloyl-3β,16α, 21β, 22a, 24β, 28-hexahydroxyolean-12-ene [Tig-R] | 20-40% | have anti-cancer activities | 2.4 µg/mL | 8 µg/mL | 2.8 ug/ml and about 2.8 ug/ml |  |  |  |  |  |  | 
3 | 15 µg/mL | 6 µg/mL | 13 µg/mL | 9 µg/mL | 15 µg/mL | 18 µg/mL | 18 µg/mL | CC=C(C)C(=O)OCC1(C)C(O)CCC2(C)C1CCC1(C)C2CC=C2C3CC(C)(C)C(O)C(O)C3(CO)C(O)CC21C (centres unmarked) [Tig-N] | 20-40% | have anti-cancer activities | 8 µg/mL | 19 µg/mL | 9 µg/mL |  |  |  |  |  |  | 

Row | Compound | IC50 of bone (U2OS) [1] | IC50 of leukemia (K562) [2] | IC50 of breast (MCF-7) [3] | IC50 of mouth (KB) [8] | IC50 of skin (SK-Mel-5) [9] | IC50 of liver (HepG2) [11] | IC50 of ovary (OVCAR3) [12] | inhibition of fibronectin secretion [4] | anti-cancer activity [5] | IC50 of pancreas (Capan) [6] | IC50 of brain (T98G) [7] | IC50 of ovary (ES2) ([10]; MTT) | IC50, pancreas cancer (Capan) cells' growth ([6]; 3 days) | IC50, ES2 cells ([10]; 2 days drug treatment, MTT) | IC100, ES2 cells ([10]; MTT OD after treatment equal to OD before treatment, 2 days) | IC50 in ES2 cells ([10]; MTT assay with low doses of Tig-S) | % of the control cell growth, ES2 ([10]; at 10 ug/ml) | MTT OD as % of the original value, ES2 ([10]; at 10 ug/ml) | IC50, ovarian cancer (OCAR3) cells' growth ([12]; FIG. 37)
4 | CC=C(C)C(=O)OCC1(C)C(O)CCC2(C)C1CCC1(C)C2CC=C2C3CC(C)(C)C(OC(=O)C(C)=CC)C(O)C3(CO)C(O)CC21C (centres unmarked) [Tig-S] | 5.2 µg/mL | 4.3 µg/mL | 6.3 µg/mL |  | 5.8 µg/mL | 8.5 µg/mL | 6.5 µg/mL | 20-40% | have anti-cancer activities | 2.9 µg/mL | 9 µg/mL |  | about 1 ug/ml | 0.3 µg/mL (≈ 0.447 µM) | 0.16 to 0.3 µg/mL and 0.15 to 0.3 µg/mL | ~0.1 µg/mL (≈ 0.149 µM) | 10% | 12% | 2.5 µg/mL (≈ 3.73 µM)
